From US8802673B2, “Heterocyclic amine derivatives” (Hoffmann-La Roche Inc, priority 2011, dated 2014)
Counter-ions that a name gives are not always drawn.

How the values were obtained:
mouse TAAR1 = mouse TAAR1 (Mus musculus (Mouse), UniProt Q923Y8); assay: Radioligand binding assay on mouse TAAR1; settings: mouse TAAR1 (first value of the cell), HEK-293 membranes; read-out: Ki (μM) mouse/rat
Method: (§1) Construction of TAAR Expression Plasmids and Stably Transfected Cell Lines
(§2) For the construction of expression plasmids the coding sequences of human, rat and mouse TAAR 1 were amplified from genomic DNA essentially as described by Lindemann et al.. The Expand High Fidelity PCR System (Roche Diagnostics) was used with 1.5 mM Mg^2+ and purified PCR products were cloned into pCR2.1-TOPO cloning vector (Invitrogen) following the instructions of the manufacturer. PCR products were subcloned into the pIRESneo2 vector (BD Clontech, Palo Alto, Calif.), and expression vectors were sequence verified before introduction in cell lines.
(§3) HEK293 cells (ATCC #CRL-1573) were cultured essentially as described by Lindemann et al. (2005). For the generation of stably transfected cell lines HEK293 cells were transfected with the pIRESneo2 expression plasmids containing the TAAR coding sequences (described above) with Lipofectamine 2000 (Invitrogen) according to the instructions of the manufacturer, and 24 hrs post transfection the culture medium was supplemented with 1 mg/ml G418 (Sigma, Buchs, Switzerland). After a culture period of about 10 d clones were isolated, expanded and tested for responsiveness to trace amines (all compounds purchased from Sigma) with the cAMP Biotrak Enzyme immunoassay (EIA) System (Amersham) following the non-acetylation EIA procedure provided by the manufacturer.
Radioligand Binding Assay on Mouse TAAR1
Membrane Preparation and Radioligand Binding.
(§4) HEK-293 cells stably expressing mouse TAAR1 were maintained at 37° C. and 5% CO2 in DMEM high glucose medium, containing fetal calf serum (10%, heat inactivated for 30 min at 56° C.), penicillin/streptomycin (1%), and 375 μg/ml geneticin (Gibco). Cells were released from culture flasks using trypsin/EDTA, harvested, washed twice with ice-cold PBS (without Ca^2+ and Mg^2+), pelleted at 1,000 rpm for 5 min at 4° C., frozen and stored at −80° C. Frozen pellets were suspended in 20 ml HEPES-NaOH (20 mM, pH 7.4) containing 10 mM EDTA and homogenized with a Polytron (PT 6000, Kinematica) at 14,000 rpm for 20 s. The homogenate was centrifuged at 48,000×g for 30 min at 4° C. Subsequently, the supernatant was removed and discarded, and the pellet resuspended in 20 ml HEPES-NaOH (20 mM, pH 7.4) containing 0.1 mM EDTA using the Polytron (20 s at 14,000 rpm). This procedure was repeated and the final pellet resuspended in HEPES-NaOH containing 0.1 mM EDTA and homogenized using the Polytron. Typically, aliquots of 2 ml membrane portions were stored at −80° C. With each new membrane batch the dissociation constant (Kd) was determined via a saturation curve. […] All compounds were tested at a broad range of concentrations (10 pM to 10 μM) in duplicates. […] The 96 deep well plates were incubated for 1 hr at 4° C. Incubations were terminated by rapid filtration through Unifilter-96 plates (Packard Instrument Company) and glass filters GF/C (Perkin Elmer) presoaked for 1 hr in polyethylenimine (0.3%) and washed 3 times with 1 ml of cold binding buffer. After addition of 45 μl of Microscint 40 (PerkinElmer) the Unifilter-96 plate was sealed and after 1 hr the ratioactivity counted using a TopCount Microplate Scintillation Counter (Packard Instrument Company).

rat TAAR1 = rat TAAR1 (Rattus norvegicus (Rat), UniProt Q923Y9); assay: Radioligand binding assay on rat TAAR1; settings: rat TAAR1 (second value of the cell), HEK-293 membranes; read-out: Ki (μM) mouse/rat
rat TAAR1, sequence (Q923Y9 whole entry): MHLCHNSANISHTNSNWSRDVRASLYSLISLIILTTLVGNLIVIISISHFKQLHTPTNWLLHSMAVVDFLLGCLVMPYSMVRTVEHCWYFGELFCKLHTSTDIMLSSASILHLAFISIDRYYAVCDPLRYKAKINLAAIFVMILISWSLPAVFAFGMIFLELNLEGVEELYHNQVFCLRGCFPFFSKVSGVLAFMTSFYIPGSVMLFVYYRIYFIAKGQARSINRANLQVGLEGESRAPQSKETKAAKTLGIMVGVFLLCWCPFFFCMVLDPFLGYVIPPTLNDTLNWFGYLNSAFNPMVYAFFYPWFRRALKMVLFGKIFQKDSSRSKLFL
Method: as §1, §2, §3
Radioligand Binding Assay on Rat TAAR1
Membrane Preparation and Radioligand Binding
as §4, with “rat” for “mouse”

mouse TAAR1, sequence (Q923Y8 whole entry): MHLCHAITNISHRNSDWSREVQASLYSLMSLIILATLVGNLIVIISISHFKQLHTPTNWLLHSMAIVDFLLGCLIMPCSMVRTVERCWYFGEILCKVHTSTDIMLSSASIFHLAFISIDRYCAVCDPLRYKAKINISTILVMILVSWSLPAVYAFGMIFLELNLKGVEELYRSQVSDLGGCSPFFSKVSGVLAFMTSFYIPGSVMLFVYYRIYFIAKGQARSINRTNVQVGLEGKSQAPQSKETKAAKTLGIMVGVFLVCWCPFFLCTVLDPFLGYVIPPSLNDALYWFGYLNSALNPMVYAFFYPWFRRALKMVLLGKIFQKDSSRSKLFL

For CC(Nc1ccc([C@H]2CNCCO2)cc1)c1ccc(Cl)cc1 (mixture of isomers) [Example 70, [(RS)-1-(4-Chloro-phenyl)-ethyl]-((S)-4-morpholin-2-yl-phenyl)-amine], the Ki (mouse TAAR1) was 0.523 µM and the Ki (rat TAAR1) was 4.07 µM.

Molecule Cc1cc(C)nc(Nc2ccc(C3CCNC3)cc2)n1 (racemic) [Example 1, (RS)-(4,6-Dimethyl-pyrimidin-2-yl)-(4-pyrrolidin-3-yl-phenyl)-amine; hydrochloride] has a Ki (mouse TAAR1) of 0.074 µM and a Ki (rat TAAR1) of 1.51 µM.

Molecule FC(F)(F)C(Nc1ccc(CCC2CCCNC2)cc1)c1ccc(Cl)cc1 (racemic) [Example 4, (RS)-[1-(4-Chloro-phenyl)-2,2,2-trifluoro-ethyl]-[(RS)-4-(2-piperidin-3-yl-ethyl)-phenyl]-amine] has a Ki (mouse TAAR1) of 0.122 µM and a Ki (rat TAAR1) of 0.0785 µM.

In the case of Clc1ccc(Nc2ccc(C3CNCCO3)cc2)nc1 (racemic) [Example 5, (RS)-(5-Chloro-pyridin-2-yl)-(4-morpholin-2-yl-phenyl)-amine], the Ki (mouse TAAR1) is reported as 0.0011 µM and the Ki (rat TAAR1) is reported as 0.029 µM.

Clc1cnc(Nc2ccc(C3CNCCO3)cc2)nc1 (racemic) [Example 6, (RS)-(5-Chloro-pyrimidin-2-yl)-(4-morpholin-2-yl-phenyl)-amine] showed a Ki (mouse TAAR1) of 0.0133 µM and a Ki (rat TAAR1) of 0.232 µM.

In the case of Clc1ccc(Nc2ccc(C3CNCCO3)cc2)cc1 (racemic) [Example 8, (RS)-(4-Chloro-phenyl)-(4-morpholin-2-yl-phenyl)-amine], the Ki (mouse TAAR1) is reported as 0.0005 µM and the Ki (rat TAAR1) is reported as 0.0325 µM.

Clc1ccc(CNc2ccc(C3CNCCO3)cc2)cc1 (racemic) [Example 9, (RS)-(4-Chloro-benzyl)-(4-morpholin-2-yl-phenyl)-amine] gave a Ki (mouse TAAR1) of 0.0181 µM and a Ki (rat TAAR1) of 0.0893 µM.

Cc1cc(C2CNCCO2)ccc1Nc1ccc(Br)cn1 (racemic) [Example 76, (RS)-5-Bromo-N-(2-methyl-4-(morpholin-2-yl)phenyl)pyridin-2-amine] gave a Ki (mouse TAAR1) of 0.0024 µM and a Ki (rat TAAR1) of 0.045 µM.

Work on Cc1cc(C2CNCCO2)ccc1Nc1ccc(Cl)cc1 (racemic) [Example 79, (RS)-(4-Chloro-phenyl)-(2-methyl-4-morpholin-2-yl-phenyl)-amine] yielded a Ki (mouse TAAR1) of 0.0047 µM and a Ki (rat TAAR1) of 0.0716 µM.

Molecule Cc1cc(C2CNCCO2)ccc1Nc1ccc(Cl)cn1 (racemic) [Example 80, (RS)-(5-Chloro-pyridin-2-yl)-(2-methyl-4-morpholin-2-yl-phenyl)-amine] has a Ki (mouse TAAR1) of 0.0026 µM and a Ki (rat TAAR1) of 0.0626 µM.

Work on Cc1cc(C2CNCCO2)ccc1Nc1ncc(Cl)cn1 (racemic) [Example 81, (RS)-(5-Chloro-pyrimidin-2-yl)-(2-methyl-4-morpholin-2-yl-phenyl)-amine] yielded a Ki (mouse TAAR1) of 0.0162 µM and a Ki (rat TAAR1) of 0.203 µM.

Work on Cc1cc(Nc2ccc(C3CNCCO3)cc2C)ncc1Cl (racemic) [Example 84, (RS)-5-Chloro-4-methyl-N-(2-methyl-4-(morpholin-2-yl)phenyl)pyridin-2-amine] yielded a Ki (mouse TAAR1) of 0.0015 µM and a Ki (rat TAAR1) of 0.057 µM.

Molecule Cc1cc(Nc2ccc(C3CNCCO3)cc2C)ncc1Br (racemic) [Example 85, (RS)-5-Bromo-4-methyl-N-(2-methyl-4-(morpholin-2-yl)phenyl)pyridin-2-amine] has a Ki (mouse TAAR1) of 0.0014 µM and a Ki (rat TAAR1) of 0.0194 µM.

Molecule CCc1cnc(Nc2ccc(C3CNCCO3)cc2C)nc1 (racemic) [Example 88, (RS)-5-Ethyl-N-(2-methyl-4-(morpholin-2-yl)phenyl)pyrimidin-2-amine] has a Ki (mouse TAAR1) of 0.008 µM and a Ki (rat TAAR1) of 0.0874 µM.

Cc1cc(C2CNCCO2)ccc1Nc1ncc(Br)cn1 (racemic) [Example 89, (RS)-5-Bromo-N-(2-methyl-4-(morpholin-2-yl)phenyl)pyrimidin-2-amine] gave a Ki (mouse TAAR1) of 0.0139 µM and a Ki (rat TAAR1) of 0.177 µM.

Clc1ccc(Nc2ccc(C3CNCCO3)cn2)nc1 (racemic) [Example 90, (RS)-5-Chloro-N-(5-(morpholin-2-yl)pyridin-2-yl)pyridin-2-amine] gave a Ki (mouse TAAR1) of 0.0196 µM and a Ki (rat TAAR1) of 0.232 µM.

c1nc(Nc2ccc(C3CNCCO3)cn2)ncc1C1CC1 (racemic) [Example 92, (RS)-5-Cyclopropyl-N-(5-(morpholin-2-yl)pyridin-2-yl)pyrimidin-2-amine] gave a Ki (mouse TAAR1) of 0.0229 µM and a Ki (rat TAAR1) of 0.275 µM.

In the case of Fc1cc(C2CNCCO2)ccc1Nc1ncc(Cl)cn1 (racemic) [Example 96, (RS)-5-Chloro-N-(2-fluoro-4-(morpholin-2-yl)phenyl)pyrimidin-2-amine], the Ki (mouse TAAR1) is reported as 0.0062 µM and the Ki (rat TAAR1) is reported as 0.0216 µM.

Fc1cc(C2CNCCO2)ccc1Nc1ccc(Cl)cn1 (racemic) [Example 99, (RS)-5-Chloro-N-(2-fluoro-4-(morpholin-2-yl)phenyl)pyridin-2-amine] showed a Ki (rat TAAR1) of 0.0185 µM.

c1cc(Nc2ccc(C3CNCCO3)cc2)[nH]n1 (racemic) [Example 155, (RS)-(4-Morpholin-2-yl-phenyl)-(1H-pyrazol-3-yl)-amine] was tested, and the Ki (mouse TAAR1) was 0.6 µM.

For Brc1cnc(Nc2ccc([C@@H]3CNCCO3)cc2)nc1 [Example 94, (5-Bromo-pyrimidin-2-yl)-((R)-4-morpholin-2-yl-phenyl)-amine], the Ki (rat TAAR1) was 0.0489 µM.

Brc1ccc(Nc2ccc([C@@H]3CNCCO3)cn2)nc1 [Example 108, (R)-5-Bromo-N-(5-(morpholin-2-yl)pyridin-2-yl)pyridin-2-amine] showed a Ki (rat TAAR1) of 0.216 µM.

In the case of Brc1ccc(Nc2ccc([C@H]3CNCCO3)cn2)nc1 [Example 109, (S)-5-Bromo-N-(5-(morpholin-2-yl)pyridin-2-yl)pyridin-2-amine], the Ki (rat TAAR1) is reported as 0.362 µM.

With Cc1cc([C@@H]2CNCCO2)ccc1Nc1ncc(C2CC2)cn1 [Example 110, (5-Cyclopropyl-pyrimidin-2-yl)-((R)-2-methyl-4-morpholin-2-yl-phenyl)-amine] the Ki (rat TAAR1) was 0.0306 µM.

For Cc1cc([C@H]2CNCCO2)ccc1Nc1ncc(C2CC2)cn1 [Example 111, (5-Cyclopropyl-pyrimidin-2-yl)-((S)-2-methyl-4-morpholin-2-yl-phenyl)-amine], the Ki (rat TAAR1) was 0.0322 µM.

Work on Fc1cc([C@@H]2CNCCO2)ccc1Nc1ncc(C2CC2)cn1 [Example 118, (5-Cyclopropyl-pyrimidin-2-yl)-((R)-2-fluoro-4-morpholin-2-yl-phenyl)-amine] yielded a Ki (rat TAAR1) of 0.003 µM.

Work on Fc1cc([C@H]2CNCCO2)ccc1Nc1ncc(C2CC2)cn1 [Example 119, (5-Cyclopropyl-pyrimidin-2-yl)-((S)-2-fluoro-4-morpholin-2-yl-phenyl)-amine] yielded a Ki (rat TAAR1) of 0.0051 µM.

Fc1cc([C@@H]2CNCCO2)ccc1Nc1ncc(Br)cn1 [Example 126, (5-Bromo-pyrimidin-2-yl)-((R)-2-fluoro-4-morpholin-2-yl-phenyl)-amine] was tested, and the Ki (rat TAAR1) was 0.0096 µM.

Fc1cc([C@H]2CNCCO2)ccc1Nc1ncc(Br)cn1 [Example 127, (5-Bromo-pyrimidin-2-yl)-((S)-2-fluoro-4-morpholin-2-yl-phenyl)-amine] gave a Ki (rat TAAR1) of 0.0165 µM.
